According to PMC12561408, “AI‐Driven De Novo Design of Ultra Long‐Acting GLP‐1 Receptor Agonists” (Advanced Science, 2025):

How the values were obtained:
in vivo = conditions: male, SD, rat, 0.05 mg/kg; for level at 72 h: Plasma Conc. at 72 h; for level at 96 h: Plasma Conc. at 96 h
Procedure: B) half‐life (T1/2). C) the maximum plasma concentration (Cmax). […] F) time to Maximum Concentration (Tmax). […] Data were analyzed with the two‐sided Student's unpaired t test. ^* p < 0.05, ^** p < 0.01, ^*** p < 0.001.
Plasma samples were analyzed using LC‐MS/MS (Waters XEVO TQ‐XS), and pharmacokinetic parameters such as T1/2, Cmax, Tmax, AUC0‐t, and MRT0‐t were calculated using WinNonlin. The sample preparation and detailed information of LC‐MS/MS are shown in Table S5 (Supporting Information).

[1] = rat, in vivo; cited from earlier work
Text: According to a study by Novo Nordisk,^[ [39] ^] […] While the fatty acid chai ...

SMILES: CC[C@H](C)[C@H](NC(=O)[C@H](Cc1ccccc1)NC(=O)[C@H](CCC(=O)O)NC(=O)[C@H](CCCCNC(=O)COCCOCCNC(=O)COCCOCCNC(=O)CC[C@H](NC(=O)CCCCCCCCCCCCCCCCC(=O)O)C(=O)O)NC(=O)[C@H](C)NC(=O)[C@H](C)NC(=O)[C@H](CCC(N)=O)NC(=O)CNC(=O)[C@H](CCC(=O)O)NC(=O)[C@H](CC(C)C)NC(=O)[C@H](Cc1ccc(O)cc1)NC(=O)[C@H](CO)NC(=O)[C@H](CO)NC(=O)[C@@H](NC(=O)[C@H](CC(=O)O)NC(=O)[C@H](CO)NC(=O)[C@@H](NC(=O)[C@H](Cc1ccccc1)NC(=O)[C@@H](NC(=O)CNC(=O)[C@H](CCC(=O)O)NC(=O)C(C)(C)NC(=O)[C@@H](N)Cc1cnc[nH]1)[C@@H](C)O)[C@@H](C)O)C(C)C)C(=O)N[C@@H](C)C(=O)N[C@@H](Cc1c[nH]c2ccccc12)C(=O)N[C@@H](CC(C)C)C(=O)N[C@H](C(=O)N[C@@H](CCCNC(=N)N)C(=O)NCC(=O)N[C@@H](CCCNC(=N)N)C(=O)NCC(=O)O)C(C)C [Semaglutide]
- level at 2 h (in vivo; Plasma Conc. at 2 h, animal 1): 241 ng/mL
- level at 2 h (in vivo; Plasma Conc. at 2 h, animal 2): 262 ng/mL
- level at 2 h (in vivo; Plasma Conc. at 2 h, animal 3): 272 ng/mL
- level at 4 h (in vivo; Plasma Conc. at 4 h, animal 1): 308 ng/mL
- level at 4 h (in vivo; Plasma Conc. at 4 h, animal 2): 275 ng/mL
- level at 4 h (in vivo; Plasma Conc. at 4 h, animal 3): 339 ng/mL
- level at 8 h (in vivo; Plasma Conc. at 8 h, animal 1): 321 ng/mL
- level at 8 h (in vivo; Plasma Conc. at 8 h, animal 2): 327 ng/mL
- level at 8 h (in vivo; Plasma Conc. at 8 h, animal 3): 341 ng/mL
- level at 12 h (in vivo; Plasma Conc. at 12 h, animal 1): 283 ng/mL
- level at 12 h (in vivo; Plasma Conc. at 12 h, animal 2): 278 ng/mL
- level at 24 h (in vivo; Plasma Conc. at 24 h, animal 1): 133 ng/mL
- level at 24 h (in vivo; Plasma Conc. at 24 h, animal 2): 135 ng/mL
- level at 48 h (in vivo; Plasma Conc. at 48 h, animal 1): 12.9 ng/mL
- level at 48 h (in vivo; Plasma Conc. at 48 h, animal 2): 13.4 ng/mL
- level at 72 h (in vivo; animal 1): 1.5 ng/mL
- level at 72 h (in vivo; animal 2): 1.8 ng/mL
- level at 96 h (in vivo; animal 1): 1 ng/mL
- level at 96 h (in vivo; animal 2): 0.3 ng/mL
- level at 2 h (in vivo; Plasma concentration at 2 h (mean)): 258 ng/mL
- level at 4 h (in vivo; Plasma concentration at 4 h (mean)): 307 ng/mL
- level at 8 h (in vivo; Plasma concentration at 8 h (mean)): 330 ng/mL
- level at 12 h (in vivo; Plasma concentration at 12 h (mean)): 280 ng/mL
- level at 24 h (in vivo; Plasma concentration at 24 h (mean)): 132 ng/mL
- level at 48 h (in vivo; Plasma concentration at 48 h (mean)): 13.9 ng/mL
- half‐life in rats (literature) [1]: 7 to 8 h
